{
  "source": "patent US8680129B2",
  "about": "“Compounds, composition, methods, targets for cancer therapy” (priority 2008, dated 2014)",
  "key": {"[1]": {"test_system": "ROS generation in HT1080 cells", "assay": "ROS labeling with CM-H2-DCFDA (imaging)", "assay_type": "cell-based, human", "conditions": "cells transfected with pUC19, no exposure to WST-1", "experimental": "Methods: HT1080 cells were cultured in cover slices and transfected with pUC19 and treated with IKK inhibitor III in sequential. Following these treatment, the cells, thus, treated, were either labeled with CM-H2-DCFDA, a fluorescence dye that can labeling ROS in cells, and, then, treated with WST-1 for 30 minutes (FIG. 23A) or treated with WST-1 for 2 hours and then labeled with CM-H2-DCFDA (FIG. 23-B). The results were recorded by a digital camera with Spotlight software. Manuel exposure levels were used to maintain the same exposure level for comparison."}, "[2]": {"test_system": "HT1080 cells", "assay": "DNA transfection, IKK inhibitor III and WST-1 combination, cell viability by CCK8", "assay_type": "cell-based, human", "experimental": "Methods: HT1080 cells were cultured in 96 well plates and transfected with one of the pUC19, pcDNA3, IKK1-KA, IKK1-KA+PUC19, or pcDNA3+pUC19 DNA vectors for 24 hours followed with treatment of IKK Inhibitor IIII at 3-30 μM for another 24 hours and, then, treated with 10% WST-1 for 4 hours and cultured overnight before detection. The same treatments of cells were measured at 24, 48 and 96 hours after WST-1 treatment. Cell viability was measured by Cell Count Kit 8 (CCK8)."}, "[3]": {"test_system": "ROS generation in UM-SCC6 cells", "assay": "Dose response of ROS generation (CM-H2-DCFDA fluorescence)", "assay_type": "cell-based, human", "experimental": "Method: UM-SCC6 cells were labeled with 10 μM CM-H2-DCFDA for 15 minutes and then treated with WST-1r or CCK8 at the indicated amounts in combination with variable doses of apigenin (A) or IKK Inhibitor III (B) for 4 hours. Fluorescence at Ex485/Em535 were measured for detecting ROS generation that labeled by the CM-H2-DCFDA."}, "[4]": {"test_system": "SK-Mel-5 human melanoma cells", "assay": "WST-1r then IKK inhibitor III, cell viability by CCK8", "assay_type": "cell-based", "conditions": "WST-1r 1% and 3% 4 hours, then BMS345541 3 and 10 μM 24 hours; combination 3% WST-1r and 10 μM BMS345541", "experimental": "(§1) Method: SK-Mel-5 and T294 human melanoma cells were treated with WST-1r at 1% and 3% final concentration respectively as indicated for 4 hours, then, removed WST-1r by changing to normal growth medium and added IKK inhibitor III for another 24 hours. After 24 hours treatment with 3 μM and 10 μM IKK inhibitor III respectively as indicated, cells were changed to grow in normal growth medium for 48 hours before measuring cell viability by CCK8 Kit."}, "[5]": {"test_system": "T294 human melanoma cells", "assay": "WST-1r then IKK inhibitor III, cell viability by CCK8", "assay_type": "cell-based", "conditions": "WST-1r 1% and 3% 4 hours, then BMS345541 3 and 10 μM 24 hours; combination 3% WST-1r and 10 μM BMS345541", "experimental": "as §1"}, "[6]": {"test_system": "HT1080 cells", "assay": "siRNA or Puc19 transfection, IKK inhibitor III and WST-1r triple combination, CCK8", "assay_type": "cell-based, human", "conditions": "IKK inhibitor 24 hours, then WST-1r 4 hour", "experimental": "Method: HT1080 cells were transfected with siRNA#3, or the siRNA targeting MAGI3, and TMEM182 that were derived from Puc19 DNA sequence and the siRNAs that targeting the corresponding genes that are the targets of the Puc19 derived siRNAs for 24 hours, then, treated with IKK inhibitor III for 24 hours followed by adding WST-1r for another 4 hour. After the 4 hours WST-1r treatment, cells in culture were changed to normal growth medium for 24 hours. Cell viability were monitored by CCK8 Kit every 24 hours. Data were normalized to % of untreated control cells. AllStar siRNA was used as negative siRNA trasnfection control. Puc19 DNA vector transfection was used as positive control.\nData label: Untreated control: 0 Ctrl, WST-1r only: 10 Ctrl, pUC19 transfected cells: 0 p9, pUC19 transfected and WST-1r treated: 10 p9, AllStar negative contrl siRNA transfected: 0 AllStar, AllStar transfected and WST-1r treated: 10 AllStar, siRNA#3 transfected: 0 siRNA#3, siRNA#3 transfcted and WST-1r treated: 10 siRNA#3, siRNAMAGI3 transfected: 0 MAGI3, siRNA MAGI3 transfcted and WST-1r treated: 10 MAGI3, siRNATMEM182 transfected: 0 TMEM182, siRNATMEM182 transfcted and WST-1r treated: 10 TMEM182,"}, "[7]": {"test_system": "Cal27, UM-SCC6 and HT1080 cells", "assay": "Differential cellular responses to mPMS, cell viability", "assay_type": "cell-based, human", "conditions": "Cal27, UM-SCC6 and HT1080 cells 'respectively', only two values printed; read-out: 1050 of mPMS", "experimental": "(§2) Non cancer human keratinocyte (HEKa), SK-Mel-5 human malonoma cell line (SK5), human head and neck cancer cell Cal27 line (Cal27) and UM-SCC6 line (SCC6) cells and human soft tissue sarcoma cell line HT1080 (HT1080) were treated with 30, 40 or 50 μM mPMS for 4 hours and then cultured in normal growth medium for another 24 hours. Cell viabilities were measured with CCK8 kit."}, "[8]": {"test_system": "Cal27 cells", "assay": "WST-3 with or without mPMS plus apigenin, cell viability", "assay_type": "cell-based, human", "conditions": "30 μM mPMS added to 0.1 mM WST-3 and 30 μM apigenin", "experimental": "(§3) Method: UM-SCC6, HT1080, Cal127, SK-Mel-5, and HEKa cells were treated with 0.1 mM WST-3 plus 30 μM mPMS, or WST-3 only, or untreated control in combination with 10 or 30 μM apigenin for 4 hours and, then, changed to normal growth medium and remained culture in this medium for another 24 hours. After the 24 hours culture, cell viabilities were measured with CCK8 Kit. Data were normalized to % of untreated control cells."}, "[9]": {"test_system": "UM-SCC6 cells", "assay": "WST-3 with or without mPMS plus apigenin, cell viability", "assay_type": "cell-based, human", "conditions": "30 μM mPMS added to 0.1 mM WST-3 and 30 μM apigenin", "experimental": "as §3"}, "[10]": {"test_system": "non cancer human keratinocyte (HEKa)", "assay": "Differential cellular responses to mPMS, cell viability", "assay_type": "cell-based", "experimental": "as §2"}, "[11]": {"test_system": "HEKa, SK-Mel-5, Cal27, UM-SCC6 and HT1080 cells", "assay": "Differential cellular responses to mPMS, cell viability, all lines", "assay_type": "cell-based, human", "conditions": "30, 40 or 50 μM mPMS 4 hours, then 24 hours", "experimental": "as §2"}, "[12]": {"test_system": "HT1080 cells", "assay": "mPMS dose-response with WST-1c and apigenin, cell viability", "assay_type": "cell-based, human", "conditions": "mPMS variable with 1 mM WST-1c and 10, 30 or 100 μM apigenin", "experimental": "(§4) Method: A & B: HT1080 (FIG. 16A) and UM-SCC6 (FIG. 16B) cells were treated with variable concentrations of mPMS as indicated in combination with 1 mM WST-1c and 10, 30 or 100 μM apigenin for 4 hours and, then, changed to normal growth medium for another 24 hours. Cell viabilities were measured by CCK8 Kit. 1 mM WST-1 only, 0.12 mM mPMS only and 10% WST-1r were used as parallel control. AP 0: Untreated Control, AP 10: 10 μM Apigenin, AP 30: 30 μM Apigenin, AP 100: 100 μM Apigenin."}, "[13]": {"test_system": "UM-SCC6 cells", "assay": "mPMS dose-response with WST-1c and apigenin, cell viability", "assay_type": "cell-based, human", "conditions": "for IC50: read-out: mPMS1050", "experimental": "as §4"}},
  "note": "Several values for one entry are separate records, joined by “and”; a condition that tells them apart may be missing. Equal values may be shown once. Read-outs that look alike come from different tables or passages of the source.",
  "data": [
    {"compound": "Cc1ccc2nc(NCCN)c3ncc(C)n3c2c1", "note": "[IKK inhibitor III]", "values": [
      {"measurement": "labeled ROS", "setting": "[1]", "result": "IKK inhibitor III dose dependent labeled ROS"},
      {"measurement": "cell death by morphology examination", "setting": "[2]; 30 μM, 24 hours after the WST-1 treatment", "result": "majority of the 30 μM IIKK inhibitor III treated cells died"},
      {"measurement": "induction of cell death", "setting": "[2]; cells transfected with any of the DNA vectors, IKK inhibitor III 3-30 μM, 24, 48 and 96 hour after WST-1 treatment, vs non transfected control", "result": "significant IKK inhibitor III dose dependent induction of cell death"},
      {"measurement": "ROS levels", "setting": "[3]; 5 μM IKK Inhibitor, alone and with WST-1r", "result": "increased ROS levels"},
      {"measurement": "ROS levels", "setting": "[3]; 10 μM IKK Inhibitor III, alone and with WST-1r", "result": "decreased it"},
      {"measurement": "ROS levels", "setting": "[3]; IKK Inhibitor III combined with CCK8", "result": "no combined effect with CCK8 on ROS levels"},
      {"measurement": "cell death", "setting": "[4]", "result": "dose dependent increase of cell deaths"},
      {"measurement": "cell death", "setting": "[5]", "result": "dose dependent increase of cell deaths"},
      {"measurement": "cell death", "setting": "[6]", "result": "dose dependent cell death"}
    ]},
    {"compound": "1-methoxy-5-methyl-phenazinium methyl sulfate [mPMS]", "values": [
      {"measurement": "IC50", "setting": "[7]", "result": "20 µM and 30 µM"},
      {"measurement": "effect of adding mPMS on cell death", "setting": "[8]", "result": "further synergize the cell death"},
      {"measurement": "effect of adding mPMS on cell death", "setting": "[9]", "result": "further synergize the cell death"},
      {"measurement": "sensitivity to mPMS treatment", "setting": "[10]; compared with the cancer cell lines", "result": "least sensitivity to mPMS treatment"},
      {"measurement": "IC50", "setting": "[10]; mPMS 4 hours, then 24 hours", "result": 50, "unit": "µM"},
      {"measurement": "cell death and sensitivity to mPMS", "setting": "[11]", "result": "mPMS dose dependent cell death and differential sensitivities to mPMS treatment"},
      {"measurement": "cell death", "setting": "[12]", "result": "dose dependent cell death"},
      {"measurement": "IC50", "setting": "[13]; combination of apigenin 100 μM and mPMS+WST-1", "result": 30, "unit": "µM"},
      {"measurement": "cell death", "setting": "[13]; mPMS variable with 1 mM WST-1c and 10, 30 or 100 μM apigenin", "result": "dose dependent cell death"},
      {"measurement": "IC50", "setting": "[13]; untreated control cells (no apigenin)", "result": 80, "unit": "µM"}
    ]}
  ]
}
